Key:
MCF7 parental cells = assay: Western blot of FKBPL and ER protein after 17-β-estradiol; format: cell-based; conditions: 10^−8M, 24 h, versus DMSO vehicle
Protocol: To determine whether FKBPL itself could be regulated by oestrogen, 2×10^5 MCF7 parental cells were seeded into 35 mm dishes with phenol red-free DMEM+10% charcoal stripped FCS and incubated at 37° C. for 24 h. The medium was replaced with phenol red-free DMEM+10% charcoal-stripped FCS containing DMSO as vehicle control or 10^−8M 17-β-estradiol (Sigma, Cat no. E2758) and incubated for 24 h. Cells were lysed in 250 μl 2× laemmli buffer (Sigma) and subjected to SDS-PAGE electrophoresis using the XCell Surelock Mini-cell system (Invitrogen), transferred onto nitrocellulose membranes, blocked for 1 h at room temperature with 1% skim milk blocking solution and probed with FKBPL rabbit polyclonal (ProteinTech, Cat no. 10060-1-AP) at a dilution of 1:2000, ER rabbit monoclonal (Millipore, Cat no. 07-662) at a dilution of 1:1000 and GAPDH rabbit monoclonal (Sigma, Cat no. G9545) at a dilution of 1:5000. The blot was then probed with corresponding anti-rabbit IgG HRP-linked whole antibody secondary (GE Healthcare, Cat no. NA934V) or anti-mouse IgG HRP-linked whole antibody secondary (GE Healthcare, Cat no. NA931V) at a dilution of 1:10000. Antibody binding was detected using Supersignal West Pico Chemiluminescent Substrate (Pierce, Cat no. 34080).

MCF7 cells [1] = assay: Clonogenic assay, FKBPL-overexpressing MCF7 clones versus parental controls; format: cell-based; conditions: 16 days, colony count
Protocol: Cells were plated at a density of 500 and 1000 cells/well in a 6-well plate containing DMEM+10% FCS and incubated at 37° C. for 24 h. […] In both experiments, colonies were fixed and stained with 0.4% Crystal Violet/70% methanol then counted.

MCF7 cells [2] = assay: Clonogenic assay after FKBPL siRNA knockdown versus non-targeting control; format: cell-based; conditions: 16 days, versus non-targeting siRNA controls
Protocol: MCF7 cells were transfected with siControl non-targeting siRNA #1 (Dharmacon, Cat no. D-001210-01-20) or FKBPL targeted siRNA (Ambion, Cat no. 16104). Briefly, 1×10^5 MCF7 cells were seeded into 35 mm dishes and incubated at 37° C. for 24 h. To transfect, in one tube 6.4 μl of either siControl non-targeting siRNA or FKBPL targeted siRNA (2 μM) was added to 160 μl OptiMEM (Invitrogen) and in another tube 4 μl Oligofectamine (Invitrogen, Cat no. 12252-011) was added to 30 μl OptiMEM. Both tubes were incubated at room temperature for 5 min. Both tube contents were mixed and incubated at room temperature for 20 min. During incubation, 800 μl prewarmed complete DMEM was added to the cells then 200 μl transfection mix was added dropwise and the dishes incubated at 37° C. for 72 h. Cells were then plated at a density of 1000 and 2000 cells/well in a 6-well plate containing DMEM+10% FCS and incubated at 37° C. for 24 h. […] In both experiments, colonies were fixed and stained with 0.4% Crystal Violet/70% methanol then counted.

[3] = tested on: oestrogen receptor positive (ER+) patients; conditions: cited from earlier work

C[C@]12CC[C@@H]3c4ccc(O)cc4CC[C@H]3[C@@H]1CC[C@@H]2O [17-β-estradiol]
ER levels (MCF7 parental cells): decrease | FKBPL protein expression (MCF7 parental cells): upregulated

C[C@]12CC[C@@H]3c4ccc(O)cc4C[C@@H](CCCCCCCCC[S+]([O-])CCCC(F)(F)C(F)(F)F)[C@H]3[C@@H]1CC[C@@H]2O (some centres unmarked) [fulvestrant, Fulvestrant]
FKBPL-overexpressing clones more sensitive than parental controls (MCF7 cells [1]; 2.5 nM fulvestrant): up to 99% | Resistance of MCF-7 cells after FKBPL knock-down (MCF7 cells [2]; 2.5 nM fulvestrant): dramatically increased the resistance

CC/C(=C(\c1ccccc1)c1ccc(OCCN(C)C)cc1)c1ccccc1 [tamoxifen, Tamoxifen]
FKBPL-overexpressing cells more sensitive than parental controls (MCF7 cells [1]; 1 μM tamoxifen): up to 90% | Resistance of MCF-7 cells after FKBPL knock-down (MCF7 cells [2]; 1 μM tamoxifen): dramatically increased the resistance | ER+ patients showing a response ([3]; ER+ breast cancer patients): around 60% | ER+ tumours failing to respond to or developing resistance ([3]; ER+ tumours (non-responder subjects)): up to 40%

Source: US9110063B2, “Assay methods for the determination of FKBPL expression level in the context of breast cancer” (The Queen's University of Belfast, priority 2009, dated 2015)
